Measured values published in US10772832B2, “Dry powder formulations for inhalation” (OTITOPIC INC., priority 2015, dated 2020).

What was measured:
[1] = Anti-solvent suspension evaluation (filtration, residue weighing); format: physicochemical; conditions: 5% w/w suspension, room temperature
Protocol: After considering a number of factors in the end it was determined that only n-heptane and toluene fulfilled all the requirements, and therefore these were selected for further evaluation. Suspensions of acetylsalicylic acid at 5% w/w were prepared with the various anti-solvents, by charging the required amount of anti-solvent, charging the required amount of acetylsalicylic acid, and then stirring until a homogeneous suspension was obtained. The suspensions were qualitatively evaluated at room temperature and then filtered using a 0.45 μm membrane, which was then placed in an oven and dried at 60° C. until the solvent had completely evaporated. A quantitative analysis was performed on the residue that remained in the membrane by weighing the membrane before and after the test.

[2] = Light microscopy particle size; format: physicochemical
Source text: Rhodine 3040 US obtained from Rhodia Inc. was used for all experiments. Particles were dispersed in 0.1% w/w docusate sodium in water and observed under a light microscope to confirm particle size. Particles ranging from 66 to 280 μm were observed confirming data from certificate of analysis, though observed “rounding” of the particulates is indicative of partial dissolution in the aqueous dispersant.
Photomicrographs of the pre- and post-micronized uncoated particles were taken by dispersing them in a solution of 0.1% w/w docusate sodium in purified water USP, and using a digital imaging light microscope (Olympus BX51 with Clemex ST-2000 controller) at 400-times or 1000-times magnification.

Behavior towards n-heptane [1]: phobic behavior
Solubility in toluene [1]: partially soluble
Reduction in the starting particle size by micronization [2]: approximately 70 fold
SMILES: CC(=O)Oc1ccccc1C(=O)O [acetylsalicylic acid]
